Some results are limits rather than exact numbers.

What all share (assay type): biochemical
Assay [1] concerns the target T1, NpmA (16S rRNA (m1A1408) methyltransferase) (Escherichia coli, UniProt A8C927).
T1 construct: recombinant NpmA
In words: in vitro […] subunit [3H]-SAM methylation assay at fixed […]. Particulars: read-out: % activity at 1 mM.

Assay [2] deals with T1, NpmA (16S rRNA (m1A1408) methyltransferase). In words: in vitro […] subunit [3H]-SAM methylation filter-binding assay, dose-response; resynthesized and retested.
For assay [3] the target is unchanged. In words: in vitro […] subunit [3H]-SAM methylation filter-binding assay, dose-response.

T1 sequence (A8C927 whole entry): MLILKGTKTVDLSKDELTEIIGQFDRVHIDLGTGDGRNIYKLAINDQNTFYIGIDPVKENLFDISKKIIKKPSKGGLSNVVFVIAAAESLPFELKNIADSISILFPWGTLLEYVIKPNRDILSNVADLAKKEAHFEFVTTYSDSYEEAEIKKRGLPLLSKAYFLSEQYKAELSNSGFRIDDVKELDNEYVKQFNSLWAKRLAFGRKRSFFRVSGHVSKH

For the compound `CC(=O)c1ccc(NC(=O)/C(=C/c2cccc([N+](=O)[O-])c2)NC(=O)c2ccc(C)cc2)cc1` [compound 3], the activity at 1000 µM in assay [1] is less than 25%.

Regarding `Cc1ccc(-c2cc(C(=O)N3CCC(c4cc(O)ncn4)CC3)[nH]n2)cc1` [compound 10], in assay [1], the activity at 1000 µM is less than 25%.

As for `COc1cc(C2C(C(=O)OCCc3ccccc3)=C(C)NC3=C2C(=O)CC(c2ccccc2)C3)cc(Br)c1O` (stereo not drawn) [compound 20], in assay [1], the activity at 1000 µM was less than 25%.

Regarding `CC(=O)c1ccc(NC(=O)/C(=C/c2cccc([N+](=O)[O-])c2)NC(=O)c2ccccc2Cl)cc1` [compound 23, (Z)-N-(3-((4-Acetylphenyl)-amino)-1-(3-nitrophenyl)-3-oxoprop-1-en-2-yl)-2-chlorobenz-amide], in assay [2], the IC50 (in general, the concentration needed to halve the response being measured) is 76 µM.

In assay [3], `Cc1ccc(NC(=O)C(=Cc2cccc([N+](=O)[O-])c2)NC(=O)c2ccccc2I)cc1` [compound 45] registered a half-inhibitory concentration (IC50) of 99 µM.

Turning to `Cc1ccc(NC(=O)C(=Cc2cccc([N+](=O)[O-])c2)NC(=O)c2ccc(Cl)cc2Cl)cc1` [compound 47], the IC50 in assay [3] turned out to be 68 µM.

(Values after PMC12340973, “Discovery of First-in-Class Inhibitors Targeting a Pathogen-Associated Aminoglycoside-Resistance 16S rRNA Methyltransferase” (ACS Infectious Diseases, 2025).)
